Tested on: honeybees
Test: honeybee repulsion experiment at feeding stations with 50% sucrose
Format: in vivo
Conditions: 2% by weight in 50% sucrose
Protocol: FIG. 1 describes the feeding station arrangement (A and B) for the honeybee repulsion experiments described herein. As set forth in FIG. 1, panel (A) sets forth the bee cage positions on the left portion of panel (A) with the randomized feeding station positions on the right portion of panel (A). Panel (B) sets forth an alignment of the randomized feeding station positions with a distance of two meters between feeding stations. A total of eight feeding stations were evaluated at a ten meter distance in front of the respective bee hives. The feeding stations were placed two meters apart from one another.
Honeybees were trained to deep feeders (eight positions), each containing a 50% sucrose solution for one day. After the honeybees were trained to each feeder, the 50% sucrose feeder at randomized positions 1-8 was replaced with a shallow feeder containing a combination of repelling compounds and a 50% sucrose solution according to Table 5. In accordance with FIGS. 5 and 6, 2% by weight of Camphor oil (T4), Ajowan oil (T5), Camphor powder (T6), Rosemary oil (T7), and 2-Decanone (T8) in combination with a 50% sucrose treatment were added to feeders on day two.
Table 5 describes active agents evaluated for bee repulsion and their randomized feeding station positions. As described in Table 5, T1 (control), T2 (control), T3 (control), T4 (Camphor oil), T5 (Ajowan oil), T6 (Camphor powder), T7 (Rosemary oil), and T8 (2-Decanone).
FIG. 5 evaluates the number of bees visiting a respective feed station over a time interval. FIG. 6 sets forth the mean number of honeybees visiting feeding station over a period of four hours.

CCCCCCCCC(C)=O [2-Decanone, 2-decanone]
repellency to honeybees visiting feeding station (at/after 24 hours): exhibited repellency | repellency to honeybees visiting feeding station (at/after 24 hours, listed as 2-decanone): still repellent | repellency to honeybees visiting feeding station (full 4 hour assessment period): highly repellent
